Numbers after ± are expanded uncertainties.
Settings: for viscosity / speed of sound / mass density: 102 kPa, Liquid; for viscosity: Concentric cylinders viscometry; for speed of sound: Single path-length method; for mass density: Vibrating tube method; for surface tension liquid-gas: Pendant drop shape

Row | SMILES | viscosity (293.15 K) [mPa·s] | speed of sound (293.15 K) [m/s] | mass density (293.15 K) [kg/m3] | viscosity (298.15 K) [mPa·s] | mass density (298.15 K) [kg/m3] | viscosity (303.15 K) [mPa·s] | speed of sound (303.15 K) [m/s] | mass density (303.15 K) [kg/m3] | viscosity (313.15 K) [mPa·s] | speed of sound (313.15 K) [m/s] | mass density (313.15 K) [kg/m3] | viscosity (323.15 K) [mPa·s] | speed of sound (323.15 K) [m/s] | mass density (323.15 K) [kg/m3] | viscosity (333.15 K) [mPa·s] | speed of sound (333.15 K) [m/s] | mass density (333.15 K) [kg/m3] | speed of sound (298.15 K) [m/s] | other results
1 | CCCCCCCCCCCC [dodecane] | 1.49 ± 0.01 | 1297.7 ± 0.7 | 748.73 ± 0.7 | 1.36 ± 0.01 | 745.11 ± 0.7 | 1.26 ± 0.01 | 1259 ± 0.7 | 741.77 ± 0.7 | 1.06 ± 0.01 | 1221.1 ± 0.7 | 734.87 ± 0.7 | 0.925 ± 0.012 | 1183.9 ± 0.7 | 726.88 ± 0.7 | 0.795 ± 0.012 | 1147.6 ± 0.7 | 719.53 ± 0.7 | – | surface tension liquid-gas (294.6 K): 25 ± 0.5 mN/m
2 | CCC1CCCCC1 [ethylcyclohexane] | 0.858 ± 0.012 | 1292.9 ± 0.6 | 787.98 ± 0.2 | – | – | 0.725 ± 0.011 | 1249.9 ± 0.6 | 779.91 ± 0.2 | 0.649 ± 0.011 | 1208 ± 0.6 | 771.79 ± 0.2 | 0.572 ± 0.011 | 1166.9 ± 0.6 | 763.6 ± 0.21 | 0.504 ± 0.011 | 1126.9 ± 0.6 | 755.36 ± 0.21 | – | surface tension liquid-gas (295.6 K): 25.3 ± 0.5 mN/m
3 | CCCCCCCCCCCCCCCC [hexadecane] | 3.47 ± 0.02 | 1357.4 ± 0.6 | 773.37 ± 0.32 | 3.06 ± 0.02 | 769.89 ± 0.32 | 2.76 ± 0.02 | 1319.7 ± 0.6 | 766.43 ± 0.32 | 2.23 ± 0.02 | 1282.9 ± 0.6 | 759.51 ± 0.32 | 1.86 ± 0.01 | 1247.1 ± 0.6 | 752.6 ± 0.32 | 1.56 ± 0.01 | 1212.2 ± 0.6 | 745.69 ± 0.32 | 1338.6 ± 0.6 | surface tension liquid-gas (296.1 K): 26.9 ± 0.7 mN/m
4 | CC1CCCCC1 [methylcyclohexane] | 0.74 ± 0.011 | 1236.5 ± 0.6 | 769.3 ± 0.2 | 0.685 ± 0.011 | 764.99 ± 0.21 | 0.633 ± 0.011 | 1192.3 ± 0.6 | 760.64 ± 0.21 | 0.572 ± 0.011 | 1149.2 ± 0.6 | 751.92 ± 0.21 | 0.489 ± 0.011 | 1106.9 ± 0.6 | 743.13 ± 0.21 | 0.44 ± 0.011 | 1065.7 ± 0.6 | 734.25 ± 0.21 | 1214.5 ± 0.6 | surface tension liquid-gas (291.1 K): 23.7 ± 0.5 mN/m
